For four compounds, MIC, MIC50 and MIC90 results are on record in ChEMBL document CHEMBL1275424, “In vitro activity of anidulafungin against Candida albicans biofilms” (2008).

Common to all, as to type: functional
Assay [1] has as its system Candida albicans. Description: Antimicrobial activity against Candida albicans grown as planktonic cell after 48 hrs by broth microdilution method. On the technique in general: Broth dilution looks for growth in wells or tubes with falling amounts of substance.
Assay [2] relates to Candida albicans. Description: Antimicrobial activity against Candida albicans grown as sessile cell after 48 hrs by broth microdilution method.
In assay [3] the test system is Candida albicans. In words: Antimicrobial activity against Candida albicans grown as planktonic cell by broth microdilution method.
For assay [4], the system named is Candida albicans. In words: Antimicrobial activity against Candida albicans grown as planktonic cell after 24 hrs by broth microdilution method.
Assay [5] deals with Candida albicans. In words: Antimicrobial activity against Candida albicans GDH2346 grown as sessile cell after 48 hrs by broth microdilution method. Conditions: GDH2346, 48 h.

SMILES strings stand for the structures. ≈ marks a conversion by molar mass, not a printed value. Numbered stars: 1 amine (or outer) side, 2 acyl side, 3 side chain; on linkers, the order of the positions; unused ones are H or OH. Bridge positions count the residues as written; N and C are the ends. Square brackets hold non-standard residues; d marks the D form. Peptide text beside a SMILES is read from it. * marks the point of attachment. pTerphenylCO(4''-OnC5H11) = CCCCCOc1ccc(-c2ccc(-c3ccc(C(=O)*)cc3)cc2)cc1; Orn(4R-OH,5R-OH) = O=C([C@H](C[C@@H](O)[C@@H](O)N[*:3])N[*:1])[*:2]; hTyr(3S-OH,4S-OH) = N[C@H](C(=O)O)[C@H](O)[C@@H](O)c1ccc(O)cc1; Pro(3S-OH,4S-Me) = C[C@H]1CN[C@H](C(=O)O)[C@H]1O; Hyp = O=C(O)[C@@H]1C[C@@H](O)CN1

Broadly, the MIC is the least concentration at which growth counts as inhibited. A lower MIC goes with a more susceptible organism. Usually MIC50 stands for the lowest concentration that inhibits either 50% of growth or 50% of the strains tested, depending on the study. Read a high MIC50 as lower susceptibility. As usually defined, the MIC90 is the lowest concentration that inhibits either 90% of growth or 90% of the strains tested, depending on the study. A higher MIC90 goes with lower susceptibility. `CCCCCOc1ccc(-c2ccc(-c3ccc(C(=O)N[C@H]4C[C@@H](O)[C@@H](O)NC(=O)[C@@H]5[C@@H](O)[C@@H](C)CN5C(=O)[C@H]([C@@H](C)O)NC(=O)[C@H]([C@H](O)[C@@H](O)c5ccc(O)cc5)NC(=O)[C@@H]5C[C@@H](O)CN5C(=O)[C@H]([C@@H](C)O)NC4=O)cc3)cc2)cc1` [ANIDULAFUNGIN] ({pTerphenylCO(4''-OnC5H11)}-[Orn(4R-OH,5R-OH)]T[Hyp][hTyr(3S-OH,4S-OH)]T[Pro(3S-OH,4S-Me)]; lactam 1-C): the minimal inhibitory concentration (MIC) in assay [1] is not above 0.5 µg/mL; in assay [2], more than 0.03 µg/mL; in assay [3], not above 0.03 µg/mL; in assay [4], 0.125 µg/mL (≈ 0.11 µM); in assay [5], not above 0.03 µg/mL. Also, in assay [3], the MIC50 was not above 0.03 µg/mL. Further, in assay [3], the MIC90 came out at 0.125 µg/mL (≈ 0.11 µM).

`CC[C@H](C)C[C@H](C)CCCCCCCCC(=O)N[C@H]1C[C@@H](O)[C@@H](NCCN)NC(=O)[C@@H]2[C@@H](O)CCN2C(=O)[C@H]([C@H](O)CCN)NC(=O)[C@H]([C@H](O)[C@@H](O)c2ccc(O)cc2)NC(=O)[C@@H]2C[C@@H](O)CN2C(=O)[C@H]([C@@H](C)O)NC1=O` [CASPOFUNGIN] returned an MIC90 in assay [3] of 0.5 µg/mL (≈ 0.457 µM).

`C[C@@H](c1ncncc1F)[C@](O)(Cn1cncn1)c1ccc(F)cc1F` [VORICONAZOLE] returned an MIC90 in assay [3] of more than 0.06 µg/mL.

`C[C@@H]1[C@H](O)[C@@H](C)/C=C/C=C/C=C/C=C/C=C/C=C/C=C/[C@H](O[C@@H]2O[C@H](C)[C@@H](O)[C@H](N)[C@@H]2O)C[C@@H]2O[C@](O)(C[C@@H](O)C[C@@H](O)[C@H](O)CC[C@@H](O)C[C@@H](O)CC(=O)O[C@H]1C)C[C@H](O)[C@H]2C(=O)O` [AMPHOTERICIN B]: the MIC90 in assay [3] turned out to be 0.25 µg/mL (≈ 0.271 µM).
